From patent EP0610032A1, “Acetanilide derivatives” (ZENECA LIMITED, priority 1993, dated 1994) come the findings set out here.

The target in assay [1] is T1, 5-LO (Homo sapiens, UniProt P09917).
T1 construct: incubating a test compound with heparinised human blood, prior to challenge with the calcium ionophore A23187; endogenous in cells; host or cells: heparinised human whole blood (blood cells)
T1 sequence (P09917 1-674): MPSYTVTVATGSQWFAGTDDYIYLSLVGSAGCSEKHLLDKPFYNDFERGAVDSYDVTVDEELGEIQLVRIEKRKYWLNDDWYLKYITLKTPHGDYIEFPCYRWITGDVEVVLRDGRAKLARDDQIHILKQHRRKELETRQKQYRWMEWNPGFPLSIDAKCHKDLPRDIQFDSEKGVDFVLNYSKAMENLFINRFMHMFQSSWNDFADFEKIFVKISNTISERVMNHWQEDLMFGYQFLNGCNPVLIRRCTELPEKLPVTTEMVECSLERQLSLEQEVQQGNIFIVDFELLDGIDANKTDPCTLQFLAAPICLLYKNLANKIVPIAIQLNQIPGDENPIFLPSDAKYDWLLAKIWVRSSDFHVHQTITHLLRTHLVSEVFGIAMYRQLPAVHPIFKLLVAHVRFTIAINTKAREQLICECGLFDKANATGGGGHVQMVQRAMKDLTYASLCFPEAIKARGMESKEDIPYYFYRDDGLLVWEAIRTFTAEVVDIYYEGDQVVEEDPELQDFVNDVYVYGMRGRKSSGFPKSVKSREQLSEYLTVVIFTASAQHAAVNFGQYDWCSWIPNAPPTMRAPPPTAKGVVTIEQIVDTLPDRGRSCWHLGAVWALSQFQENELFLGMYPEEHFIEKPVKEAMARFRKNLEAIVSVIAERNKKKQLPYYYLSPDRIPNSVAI
The assay is described as follows: Test a): in vitro heparinised human blood challenged with calcium ionophore A23187, radioimmunoassay of LTB₄. The format is cell-based. As to conditions: A23187 challenge, read-out: IC₅₀ (LTB₄). An excerpt:
As stated previously, the compounds of the formula I are inhibitors of the enzyme 5-LO. […] J. Pharmacol., 1985, 84, 34P) which involves the use of a protein-LTB₄ conjugate produced using the procedure of Young et alia (Prostaglandins, 1983, 26(4), 605-613). The effects of a test compound on the enzyme cyclooxygenase (which is involved in the alternative metabolic pathway for arachidonic acid and gives rise to prostaglandins, thromboxanes and related metabolites) may be measured at the same time using the specific radioimmunoassay for thromboxane B₂(TxB₂) described by Carey and Forder (see above). This test provides an indication of the effects of a test compound against 5-LO and also cyclooxygenase in the presence of blood cells and proteins. It permits the selectivity of the inhibitory effect on 5-LO or cyclooxygenase to be assessed. • b) An ex vivo assay system, which is a variation of test a) above, involving administration to a group of rats of a test compound (usually orally as the suspension produced when a solution of the test compound in dimethylsulphoxide is added to carboxymethylcellulose), blood collection, heparinisation, challenge with A23187 and radioimmunoassay of LTB₄ and TxB₂. […]

Assay [2] has as its target T2, 5-LO (Rattus norvegicus, UniProt P12527).
T2 construct: liberation of LTB₄ induced by zymosan within an air pouch generated within the subcutaneous tissue of the back of male rats; from tissue; host or cells: subcutaneous air pouch of male rats (in vivo)
T2 sequence (P12527 1-673): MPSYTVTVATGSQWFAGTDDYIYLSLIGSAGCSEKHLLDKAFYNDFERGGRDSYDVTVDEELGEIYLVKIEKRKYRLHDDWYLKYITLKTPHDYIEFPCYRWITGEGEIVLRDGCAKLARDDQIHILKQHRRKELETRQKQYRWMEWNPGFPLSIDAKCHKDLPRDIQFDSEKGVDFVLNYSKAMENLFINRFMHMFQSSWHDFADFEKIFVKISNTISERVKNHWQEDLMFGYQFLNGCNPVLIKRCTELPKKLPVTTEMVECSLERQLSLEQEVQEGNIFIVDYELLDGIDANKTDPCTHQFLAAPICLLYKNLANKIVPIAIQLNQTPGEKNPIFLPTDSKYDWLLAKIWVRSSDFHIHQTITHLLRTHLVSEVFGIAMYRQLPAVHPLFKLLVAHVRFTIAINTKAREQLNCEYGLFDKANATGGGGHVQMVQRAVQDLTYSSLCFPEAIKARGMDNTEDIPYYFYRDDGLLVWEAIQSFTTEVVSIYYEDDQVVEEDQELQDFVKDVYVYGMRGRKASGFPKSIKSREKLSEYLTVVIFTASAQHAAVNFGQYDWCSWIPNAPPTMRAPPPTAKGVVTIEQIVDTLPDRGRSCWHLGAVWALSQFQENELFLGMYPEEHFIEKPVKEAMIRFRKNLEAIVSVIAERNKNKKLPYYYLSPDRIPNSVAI
The assay is described as follows: Test c): in vivo zymosan-induced LTB₄ liberation in subcutaneous air pouch of male rats. As to conditions: oral, 3 hours, read-out: oral ED₅₀(LTB₄).
Description: This test provides an indication of the bioavailability of a test compound as an inhibitor of 5-LO or cyclooxygenase. • c) An in vivo system involving measuring the effects of a test compound administered orally against the liberation of LTB₄ induced by zymosan within an air pouch generated within the subcutaneous tissue of the back of male rats. The rats are anaesthetised and air pouches are formed by the injection of sterile air (20ml). A further injection of air (10ml) is similarly given after 3 days. At 6 days after the initial air injection the test compound is administered (usually orally as the suspension produced when a solution of the test compound in dimethylsulphoxide is added to hydroxypropylmethylcellulose), followed by the intrapouch injection of zymosan (1ml of a 1% suspension in physiological saline). After 3 hours the rats are killed, the air pouches are lavaged with physiological saline, and the specific radioimmunoassay described above is used to assay LTB₄ in the washings. This test provides an indication of inhibitory effects against 5-LO in an inflammatory milieu.

On to `CC(=O)N(C)c1ccc(Sc2cc([C@@]3(C)COC(C)(C)O3)cs2)cc1` [Example 1, N-methyl-4'-{4-[(4S)-2,2,4-trimethyl-1,3-dioxolan-4-yl]thien-2-ylthio}acetanilide], for which, on 5-LO [1], the IC50 is less than 40 nM. Besides, the ED50 on 5-LO [2] is roughly 1.5 mg/kg.

In the case of `CC(=O)N(C)c1ccc(Sc2ncc([C@@]3(C)COC(C)(C)O3)s2)cc1` [Example 2, N-methyl-4'-{5-[(4R)-2,2,4-trimethyl-1,3-dioxolan-4-yl]thiazol-2-ylthio}acetanilide], the IC50 at 5-LO [1] came to 70 nM.
